According to patent US12502391B2, “Multi-kinase inhibitors of VEGF and TGF beta and uses thereof” (AIVIVA BIOPHARMA, INC., priority 2018, dated 2025):
Like-named read-outs stand apart in the source and are kept apart here. Blank lines part the entries; values can stand above or below the compound they belong to.

Experiments:
subretinal fibrosis = test: Laser-induced subretinal fibrosis model in mice; assay type: in vivo, C57BL/6 mice; conditions: for effect on subretinal fibrosis: approximately 1 μL intravitreally on day of laser application, Days 15 and 35; for neovascular lesion sizes: approximately 1 μL of 1% (w/w) intravitreally on day of laser application
Method: The anti-fibrotic effects of test compounds were also evaluated in a subretinal fibrosis model in C57BL/6 mice. Three to five lesions were generated in the Bruch's membrane of the study eye using laser photocoagulation (75-μm spot size, 0.1-s duration, 90 mW, OcuLight TX 532 nm). Subretinal fibrosis started to form 5-7 days post laser application. Test compounds having certain spectrum of multikinase inhibition activities or vehicle were intravitreally injected on the day of laser application. The dosing concentration of the test compounds was 1% (w/w) of nintedanib and lenvatinib. The control groups were vehicle and mouse VEGF164 antibody. There were 12 mice per treatment group. Approximately, 1 μL each of the test compounds, vehicle, or positive control was injected intravitreally to the right eye of each animal. On Days 15 and 35, the eyes were examined with fluorescein angiography, followed by enucleation. Immunostaining on the dissected choroid was used to assess subretinal fibrosis (e.g., collagen 1, isolectin B4 and/or DAPI). The primary antibodies used were fluorescence conjugated isolectin B4 (FITC-conjugated isolectin B4) and anti-collagen type I antibody. […] Thus, these compounds can be used to treat subretinal fibrosis associated with proliferative retinal diseases.

subconjunctival scarring = test: Bleb survival after glaucoma filtration surgery in rabbit eyes; assay type: in vivo, rabbits
Method: In order to investigate the anti-scarring effect of topically applied test compounds following ocular surgeries, glaucoma filtration surgery was performed on rabbit eyes. Postoperative subconjunctival wound healing is a major cause of late bleb failure after glaucoma filtration surgery in humans. Select multikinase inhibitors were tested for effect on bleb survival over time. Inhibition of subconjunctival fibrosis following surgery will improve bleb survival. Vehicle was used as a negative control and pirfenidone was used a positive control.
A scleral tract was created in the left eyes superiorally by tunneling a beveled 22-gauge intravenous cannula through the sclera, beginning behind the limbus and continuing until the cannula is visible in the anterior chamber. The cannula was flushed with sodium heparin (1000 units) prior to placement. The cannula needle was withdrawn and the cannula advanced beyond the pupillary margin to prevent iris blockage of the tube. The cannula was trimmed approximately 2 mm and secured to the sclera using suture. Both the Tenon's and the conjunctiva were sutured with 9-0 Prolene. Six rabbits were used per group and the left eye of each rabbit underwent glaucoma filtration surgery. The treatment groups include vehicle control, pirfenidone (1%, w/v) as a positive control, sorafenib (0.3%, w/v), and lenvatinib (0.3%, w/v). Eyedrops (35 uL) were topically applied to the eyes following surgery three times day for 30 days. All animals were sacrificed on Day 30.
Bleb was monitored throughout the study. Bleb volumes were measured with the use of calibrated calipers. […] There were differences noted between groups at Day 7, and the majority of blebs were gone by Day 14 through Day 30 indicating bleb failure due to subconjunctival scarring. Results of the vehicle and pirfenidone groups were similar to those reported in the literature (Zhong H et al., Invest Ophthalmol Vis Sci, 52: 3136-3142, 2011).

TGF-β1 mRNA = TGF-β1 mRNA expression (qPCR) in skin of LL-37-challenged mice; assay type: in vivo; conditions: single intradermal injection 1.6 mg
Method: (§1) In our study, mice were injected subcutaneously with 40 μl of LL-37 (3.3 mg/mL) to induce inflammatory reactions. Immediately following the LL-37 injection, axitinib, nintedanib, sunitinib, or lenvatinib were individually administered as a single intradermal injection (1.6 mg). LL-37 injection was repeated every 12 hours for a total of 4 injections. Endotoxin-free water and dexamethasone (3 mg/kg by intraperitoneal injection, twice), respectively, were used as negative and positive control groups.
(§2) Mice were then anaesthetized, and tissue samples of lesion sites were excised and fixed for H&E stainings and immunohistochemical analysis. Markers for inflammation (CD4 and CD8) were determined using specific antibodies. TGF beta levels are measured by mRNA expression using qPCR.
The TGFb1 mRNA expression in mice induced with LL37 and treated with lenvatinib was 79% of that challenged with LL37 alone (i.e., without treatment).

[1] = test system: LL37-induced inflammation; test: Histopathology (inflammation, CD4+ and CD8+ lymphocyte scores) in LL37-induced dermal inflammation model; assay type: in vivo; conditions: mice, single intradermal injection 1.6 mg, LL-37 challenge, 48 hours
Method: as §1
At 48 hours after the initial LL-37 injection, the dorsal skin was photographed, and the severity of skin lesions were scored for redness and measured for areas of involvement.
as §2
The tissue samples were analyzed for inflammation characteristics. Histopathology endpoints included inflammation, and CD4+ and CD8+T-lymphocyte immunostaining. For inflammation scores, tissues were examined histologically and scored for inflammatory cell infiltrate.

[2] = Ocular tissue and plasma distribution after topical ocular instillation (LC-MS/MS); assay type: in vivo, New Zealand White rabbits; conditions: male, New Zealand White, rabbit
Method: The objective of this study was to assess the local tolerance and ocular distribution of sorafenib and lenvatinib (0.3% w/w) when administered by topical ocular instillation in the eyes. Five to six male New Zealand White rabbits were used per treatment group. Each right eye received a 35 μL eyedrop of the vehicle, sorafenib (0.3% w/w), or lenvatinib (0.3% w/w) three times daily for 5 days. On Dosing Day 5, the animals were sacrificed and eyes were enucleated, and plasma and the ocular tissues were collected. Tissue and plasma concentrations of the compounds were measured by LC-MS/MS.

[3] = test system: rabbit ear hypertrophic scar; test: Histopathology of rabbit ear wounds (neovascularization, fibrosis, re-epithelization); assay type: in vivo, New Zealand white rabbits; set-up: key to Total Score, Treated Mean: aggregate of neovascularization, fibrosis, re-epithelization grades; key to Neovascularization score, Treated Mean / Fibrosis/Collagen score, Treated Mean / Re-epithelization score, Treated Mean: five-step severity grade: minimal, mild, moderate, marked, severe; conditions: rabbit ear wound, intradermal dosing of 1 wt. %; for Total Score, Treated Mean: aggregation of microscopic findings; for Fibrosis/Collagen score, Treated Mean / Neovascularization score, Treated Mean / Re-epithelization score, Treated Mean: five-step severity grading (minimal to severe)
Method: In New Zealand white rabbits, maintained under a surgical plane of anesthesia, trauma stimulation of the skin on the ventral surface of both ears is initiated on Day 1. Trauma sites are evaluated on Days 8, 15, 22, 29, 36, and 43. On days 15 and 29, each site is dosed with test compounds (e.g., 1% w/w, 100 μl) by intradermal or intralesional injections.
At necropsy, each treatment site was harvested and preserved for hematoxylin and […] and Mason's trichrome stainings. Each lesion was examined histologically and graded for neovascularization, fibrosis and re-epithelization using a five-step/severity grading system (minimal, mild, moderate, marked, and severe). The average total score is an aggregation of these microscopic findings relating to an inflammatory response.

concentration at 5 day of dosing ([2]; in vivo, Ocular tissue concentration, Aqueous Humor, Mean): 5.49 ng/g | concentration at 5 day of dosing ([2]; in vivo, Ocular tissue concentration, Choroid, Mean): 38 ng/g | concentration at 5 day of dosing ([2]; in vivo, Ocular tissue concentration, Conjunctiva, Mean): 300 ng/g | concentration at 5 day of dosing ([2]; in vivo, Ocular tissue concentration, Cornea, Mean): 178 ng/g | concentration at 5 day of dosing ([2]; in vivo, Ocular tissue concentration, Iris Ciliary Body, Mean): 18.2 ng/g | concentration at 5 day of dosing ([2]; in vivo, Ocular tissue concentration, Retina, Mean): 23.5 ng/g | concentration at 5 day of dosing ([2]; in vivo, Ocular tissue concentration, Sclera, Mean): 49 ng/g | concentration at 5 day of dosing ([2]; in vivo, Ocular tissue concentration, Vitreous Humor, Mean): 0.619 ng/g | concentration at 5 day of dosing ([2]; in vivo, plasma concentration, mean (±SD)): 131 ng/mL
Structure (SMILES): COc1cc2nccc(Oc3ccc(NC(=O)NC4CC4)c(Cl)c3)c2cc1C(N)=O [lenvatinib]
effect on subretinal fibrosis (subretinal fibrosis): therapeutic effects in the treatment of subretinal fibrosis | neovascular lesion sizes (subretinal fibrosis): marked reductions in neovascular lesion sizes | bleb survival on Day 7 (subconjunctival scarring; eyedrops 35 uL three times a day, pirfenidone 1% w/v, lenvatinib 0.3% w/v, compared to vehicle and sorafenib groups): kept bleb survival on Day 7 | TGF-β1 mRNA expression among all treatment groups (TGF-β1 mRNA; LL-37 challenge): lowest TGF-β1 mRNA expression | TGFb1 mRNA expression relative to LL37 alone (without treatment) (TGF-β1 mRNA; LL-37 every 12 hours x4, 48 hours after initial LL-37 injection): 79% | scores of inflammation (inflammatory cell infiltrate), words [1]: prominent reductions

Structure (SMILES): COC(=O)c1ccc2c(c1)NC(=O)/C2=C(\Nc1ccc(N(C)C(=O)CN2CCN(C)CC2)cc1)c1ccccc1 [nintedanib]
effect on subretinal fibrosis (subretinal fibrosis): therapeutic effects in the treatment of subretinal fibrosis | neovascular lesion sizes (subretinal fibrosis): marked reductions in neovascular lesion sizes | angiogenesis/neovascularization and fibrosis by histopathology versus untreated wounds (words) [3]: decreased angiogenesis and fibrosis | average total score of test wounds, fold lower than untreated wounds [3]: about 1.33 fold | Total Score, Treated Mean [3]: 4.5 | Fibrosis/Collagen score, Treated Mean [3]: 3 | Neovascularization score, Treated Mean [3]: 1 | Re-epithelization score, Treated Mean [3]: 0.5 | angiogenesis/neovascularization and fibrosis by histopathology versus untreated wounds (words) ([3]; listed as Nintedanib): much less neovascularization and about the same fibrosis as untreated wounds | scores of inflammation (inflammatory cell infiltrate), words [1]: prominent reductions

Structure (SMILES): CNC(=O)c1cc(Oc2ccc(NC(=O)Nc3ccc(Cl)c(C(F)(F)F)c3)cc2)ccn1 [sorafenib]
angiogenesis/neovascularization and fibrosis by histopathology versus untreated wounds (words) [3]: do not show any reduction in angiogenesis | Total Score, Treated Mean [3]: 5.8 | Fibrosis/Collagen score, Treated Mean [3]: 2.5 | Neovascularization score, Treated Mean [3]: 3 | Re-epithelization score, Treated Mean [3]: 0.3 | angiogenesis/neovascularization and fibrosis by histopathology versus untreated wounds (words) ([3]; listed as Sorafenib): slightly increased neovascularization, and similar or slightly increased fibrosis | bleb failure on Day 14 (subconjunctival scarring; 0.3% w/v eyedrops three times a day, 6 eyes per group): all of the sorafenib treated eyes demonstrated bleb failure | concentration at 5 day of dosing ([2]; aqueous humor, topical, 0.3 % w/w (35 μL eyedrop), rabbit eyes, topical instillation of 0.3% three times daily for five days, N=6, read-out: Ocular tissue concentration, Aqueous Humor, Mean): 0 ng/g | concentration at 5 day of dosing ([2]; choroid, topical, 0.3 % w/w (35 μL eyedrop), rabbit eyes, topical instillation of 0.3% three times daily for five days, N=6, read-out: Ocular tissue concentration, Choroid, Mean): 8.19 ng/g | concentration at 5 day of dosing ([2]; conjunctiva, topical, 0.3 % w/w (35 μL eyedrop), rabbit eyes, topical instillation of 0.3% three times daily for five days, N=6, read-out: Ocular tissue concentration, Conjunctiva, Mean): 860 ng/g | concentration at 5 day of dosing ([2]; cornea, topical, 0.3 % w/w (35 μL eyedrop), rabbit eyes, topical instillation of 0.3% three times daily for five days, N=6, read-out: Ocular tissue concentration, Cornea, Mean): 131 ng/g | concentration at 5 day of dosing ([2]; iris ciliary body, topical, 0.3 % w/w (35 μL eyedrop), rabbit eyes, topical instillation of 0.3% three times daily for five days, N=6, read-out: Ocular tissue concentration, Iris Ciliary Body, Mean): 3.34 ng/g | concentration at 5 day of dosing ([2]; plasma, topical, 0.3 % w/w (35 μL eyedrop), 0.3% w/w eyedrop 35 μL three times daily, Day 5 of dosing, read-out: plasma concentration, mean (±SD)): 5.09 ng/mL | concentration at 5 day of dosing ([2]; retina, topical, 0.3 % w/w (35 μL eyedrop), rabbit eyes, topical instillation of 0.3% three times daily for five days, N=6, read-out: Ocular tissue concentration, Retina, Mean): 17.4 ng/g | concentration at 5 day of dosing ([2]; sclera, topical, 0.3 % w/w (35 μL eyedrop), rabbit eyes, topical instillation of 0.3% three times daily for five days, N=6, read-out: Ocular tissue concentration, Sclera, Mean): 16.4 ng/g | concentration at 5 day of dosing ([2]; vitreous humor, topical, 0.3 % w/w (35 μL eyedrop), rabbit eyes, topical instillation of 0.3% three times daily for five days, N=6, read-out: Ocular tissue concentration, Vitreous Humor, Mean): 0.11 ng/g
